Source: paper PMC4562501 (Anesthesiology, 2014)
Read-outs that look alike come from different tables or passages of the source.

How the values were obtained:
[1] = Intravenous methadone pharmacokinetics, protocol 2; type: in vivo; settings: both, human, plasma
clinical = settings: both, human, in vivo, po, oral methadone; for Tmax: Plasma Tmax; for half-life: Plasma t½
healthy volunteers [2] = experiment: Miosis; type: in vivo, human
healthy volunteers [3] = experiment: Miosis; type: in vivo, human; settings: IV methadone
healthy volunteers [4] = experiment: Thermal analgesia; type: in vivo, human; settings: IV methadone
[5] = racemic methadone; cited from earlier work
P-gp [6] = settings: Caco-2 cells; cited from earlier work
healthy volunteers [7] = experiment: Thermal analgesia; settings: oral methadone
[8] = oral methadone; for Plasma Cmax/dose: control session, n=16, mean ± SD
P-gp [9] = settings: tariquidar 6 mg/kg, humans; cited from earlier work
P-gp [10] = settings: well-known P-gp substrate, for comparison; cited from earlier work

SMILES: CCC(=O)C(C[C@H](C)N(C)C)(c1ccccc1)c1ccccc1 [S-Methadone, S-methadone]
- AUC(0-t) [1]: 282 ± 68 ng·h/mL
- AUC(0-t) ([1]; 0.1 mg/kg): 276 ± 47 ng·h/mL
- Cmax ([1]; 0.1 mg/kg): 32.2 ± 7.9 ng/mL
- Tmax (clinical; control): 2 ± 0.5 h
- Tmax (clinical; cyclosporine-treated): 4.6 ± 2.3 h

SMILES: CCC(=O)C(CC(C)N(C)C)(c1ccccc1)c1ccccc1 (stereo not shown) [methadone]
- Miotic response (average) (healthy volunteers [2]; oral methadone): 2 mm
- Peak miosis (dose-adjusted) (healthy volunteers [2]; oral methadone, controls): 1.4 ± 0.4 mm/mg
- Peak miosis (dose-adjusted) (healthy volunteers [2]; oral methadone, cyclosporine-treated subjects): 1.3 ± 0.5 mm/mg
- Miotic response (average) (healthy volunteers [3]): 2.5 mm
- Peak miosis (healthy volunteers [3]; controls): 3.1 ± 1.0 mm
- Peak miosis (healthy volunteers [3]; cyclosporine-treated subjects): 3.2 ± 0.8 mm
- Analgesic effect (thermal) (healthy volunteers [4]): minimal analgesic effects
- Median minimal effective (postoperative) analgesia threshold [5]: 31 ng/mL
- Reduction of rhodamine transport (P-gp [6]): 25%
- Maximally tolerated temperature (method of limits) (healthy volunteers [7]): increased the maximally tolerated temperature
- Verbal analog ratings to discrete temperatures (healthy volunteers [7]): small and brief analgesic effect

SMILES: CC=C1N(C)C(C)CC1(c1ccccc1)c1ccccc1 (stereo not shown) [R-EDDP, 2-ethylidene-1,5-dimethyl-3,3-diphenylpyrrolidine]
- Plasma AUC0-96/dose ([8]; control): 6.7 ± 1.6 ng·h/mL/mg
- Urine %dose eliminated (0-24 h) ([8]; control): 4.2 ± 2.3 %dose
- Urine %dose eliminated (0-96 h) ([8]; control): 9 ± 4 %dose
- Plasma Cmax/dose [8]: 0.24 ± 0.09 ng/mL/mg
- Plasma AUC0-96/dose ([8]; cyclosporine-treated): 8.2 ± 1.9 ng·h/mL/mg
- Urine %dose eliminated (0-24 h) ([8]; cyclosporine-treated): 4.2 ± 1.8 %dose
- Urine %dose eliminated (0-96 h) ([8]; cyclosporine-treated): 10 ± 4 %dose
- Tmax (clinical; control): 2.5 ± 0.5 h
- Tmax (clinical; cyclosporine-treated): 4.1 ± 1.1 h
- half-life (clinical; control): 57 ± 22 h
- half-life (clinical; cyclosporine-treated): 73 ± 38 h

SMILES: CC=C1N(C)C(C)CC1(c1ccccc1)c1ccccc1 (stereo not shown) [EDDP, 2-ethylidene-1,5-dimethyl-3,3-diphenylpyrrolidine]
- Increase of EDDP/methadone AUC ratio by cyclosporine [8]: 11-15%

SMILES: CCC(=O)C(C[C@@H](C)N(C)C)(c1ccccc1)c1ccccc1 [R-Methadone, R-methadone]
- Plasma concentration at which miosis was detectable (average) (healthy volunteers [2]; plasma R-methadone): 5 ng/mL

SMILES: COc1cc2c(cc1OC)CN(CCc1ccc(NC(=O)c3cc(OC)c(OC)cc3NC(=O)c3cnc4ccccc4c3)cc1)CC2 [tariquidar]
- Increase in brain concentrations of (R)-[11C]verapamil (P-gp [9]): 2.5 fold
- Increase in brain concentrations of [11C]N-desmethyl-loperamide (P-gp [9]): 4 fold

SMILES: CN(C)C(=O)C(CCN1CCC(O)(c2ccc(Cl)cc2)CC1)(c1ccccc1)c1ccccc1 [loperamide]
- Transport ratio (P-gp [10]): exceeds 10

SMILES: CC=C1N(C)C(C)CC1(c1ccccc1)c1ccccc1 (stereo not shown) [S-EDDP, 2-ethylidene-1,5-dimethyl-3,3-diphenylpyrrolidine]
- Plasma AUC0-96/dose ([8]; control): 11.6 ± 3.2 ng·h/mL/mg
- Plasma Tmax ([8]; control): 2.3 ± 0.7 h
- Plasma t½ ([8]; control): 87 ± 25 h
- Urine %dose eliminated (0-24 h) ([8]; control): 7.2 ± 3.8 %dose
- Urine %dose eliminated (0-96 h) ([8]; control): 15 ± 6 %dose
- Plasma Cmax/dose [8]: 0.35 ± 0.17 ng/mL/mg
- Plasma AUC0-96/dose ([8]; cyclosporine-treated): 14.4 ± 3.5 ng·h/mL/mg
- Plasma t½ ([8]; cyclosporine-treated): 102 ± 39 h
- Urine %dose eliminated (0-24 h) ([8]; cyclosporine-treated): 7.4 ± 3.7 %dose
- Urine %dose eliminated (0-96 h) ([8]; cyclosporine-treated): 16 ± 8 %dose
- Plasma AUC0-96 (EDDP/methadone) ratio (cyclosporine/control) ([8]; geometric mean and 90% confidence interval): 1.15 (1.04, 1.27)
